Patent publication US20030237103A1, “Methods and compositions for pharmacological and toxicological evaluation of test agents” (priority 2002, published 2003)
Read-outs that look alike come from different tables or passages of the source.

Columns and labels:
[1] = test system: Sprague Dawley, LEW and F344 rats; settings: cited from earlier work
[2] = test system: Panel, CD-IGS and parental rat strains; assay: Kidney histology of gentamicin- and vehicle-treated rats
Source text: Arrows point to regions of the proximal tabules damage scored as follows: 0=no damage, 1=25% injured tubules, 2=50% injured tubules and protein casts in lumens, 3=severe injury of >50% of tubules, 4=nearly complete necrosis of all tubules. Representative histological samples from the outbred Sprague Dawley rat CD-IGS (Panel B) and the four inbred parental strains Brown Norway, Fischer 344, Lewis and Wistar Kyoto rats (Panel C) are also shown.
We sought to maximize the range of genetic susceptibility to the adverse drug effects across the strains.

Substance: gentamicin
- susceptibility to nephrotoxic effects ([1]; F344 compared with SD): more susceptible
- nephrotoxic effects (protein in the urine) ([1]; LEW strain): sensitive
- nephrotoxic effects (protein in the urine) ([1]; Sprague Dawley rats): resistant
- damage to proximal tubules ([2]; F1 hybrids except WKYxBN): ≥ 50%
- kidney damage by histology ([2]; LEW×F344 F1 rats, 240 mg/Kg/day): nearly complete necrosis of all proximal tubules
- effect on the kidney ([2]; WKY rats): virtually no effect
- injured tubules ([2]; WKY rats, both vehicle and gentamicin treated): 25%
- renal damage by histology ([2]; WKYxBN F1 strain): little renal damage
- tubules damaged ([2]; gentamicin-treated parental strains except WKY): greater than 50%
